The target in assay [1] is T1, Adenosine receptor A1 (Rattus norvegicus, UniProt P25099).
T1 sequence (P25099 whole entry): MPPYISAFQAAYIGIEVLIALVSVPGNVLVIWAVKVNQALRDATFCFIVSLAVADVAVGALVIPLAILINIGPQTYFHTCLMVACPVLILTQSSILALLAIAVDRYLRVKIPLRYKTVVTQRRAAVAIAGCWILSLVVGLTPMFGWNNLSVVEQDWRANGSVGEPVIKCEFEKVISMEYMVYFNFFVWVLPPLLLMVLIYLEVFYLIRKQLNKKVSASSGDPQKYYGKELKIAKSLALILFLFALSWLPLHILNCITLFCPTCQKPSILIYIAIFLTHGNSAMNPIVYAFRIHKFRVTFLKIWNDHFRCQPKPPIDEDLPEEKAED
The assay can be described thus: Radiological Binding Assay. Particulars: pH 7.4. The procedure: For A1 adenosine receptors, […] of protein were incubated for 60 min at 25°C with [3H]DPCPX 0.5 nM (Kd = 0.4 nM) and increasing concentrations of the compounds, in a final volume of 0.4 mL of Tris-HCl buffer. Binding reaction was terminated by dilution with ice-cold 50 mM Tris-HCl buffer, pH 7.4.For A2A and A3 adenosine receptors, […] of protein were incubated with [3H]ZM241385 6 nM (Kd = 4 nM) in the experiments involving A2A and with [3H]NECA 15 nM (Kd = 150 nM) involving A3 and the compounds to be assayed, at fixed concentration (10 µM) or at increasing concentrations of the compounds in duplicate, in a final volume of 0.4 mL of Tris-HCl buffer for 120 min at 25°C. Non-specific binding was measured in the presence of 100 µM NECA in the case of A2A and 100 µM R-PIA in the case of A3 binding assay. Bound radioactivity of all samples was measured in a liquid scintillation counter (1600 TR Packard) after the addition of 4 mL of scintillation liquid (Emulsifier-Safe; Hewlett-Packa

Assay [2] deals with Adenosine receptor A1 (rat). The assay is described as follows: For A1 adenosine receptors, […] of protein were incubated for 60 min at 25°C with [3H]DPCPX 0.5 nM (Kd = 0.4 nM) and increasing concentrations of the compounds, in a final volume of 0.4 mL of Tris-HCl buffer. Binding reaction was terminated by dilution with ice-cold 50 mM Tris-HCl buffer, pH 7.4.For A2A and A3 adenosine receptors, […].

Assay [3] deals with Adenosine receptor A2a. The description is as above.

Drawing on BindingDB's records for doi:10.1111/cbdd.12131 (University of Pisa, 2013), this text covers Ki for 13 compounds.

One may read the Ki as a measure of affinity in units of concentration, obtained from inhibition or displacement.

Each structure is given as a SMILES string.

For the compound `Nc1nc(-c2ccccc2)nc2c1nnn2Cc1ccccc1F` [9-(ortho-fluorobenzyl)-2-phenyl-azaadenine (1bis)], the inhibition constant (Ki) in assay [1] and in assay [2] was 3.8 nM throughout.
With `O=C(Nc1nc(-c2ccccc2)nc2c1nnn2Cc1ccccc1F)C1CC1` [N-[9-(ortho-fluorobenzyl)-2-phenyl-9H-8-azapurin-6-yl]-amides (2)], the Ki in assay [2] was determined as 9.2 nM; in assay [3] it was 292 nM.
The corresponding values for `O=C(Nc1nc(-c2ccccc2)nc2c1nnn2Cc1ccccc1F)C1CCC1` [N-[9-(ortho-fluorobenzyl)-2-phenyl-9H-8-azapurin-6-yl]-amides (3)] are 0.71 nM and 72 nM.
Taken in the same sequence, the figures for `O=C(Nc1nc(-c2ccccc2)nc2c1nnn2Cc1ccccc1F)C1CCCC1` [N-[9-(ortho-fluorobenzyl)-2-phenyl-9H-8-azapurin-6-yl]-amides (4)] were 1.4 nM and 190 nM.
The corresponding values for `O=C(Nc1nc(-c2ccccc2)nc2c1nnn2Cc1ccccc1F)C1CCCCC1` [N-[9-(ortho-fluorobenzyl)-2-phenyl-9H-8-azapurin-6-yl]-amides (5)] are 2.1 nM and 413 nM.
In the case of `O=C(Nc1nc(-c2ccccc2)nc2c1nnn2Cc1ccccc1F)c1ccco1` [N-[9-(ortho-fluorobenzyl)-2-phenyl-9H-8-azapurin-6-yl]-amides (6)], the inhibition constant Ki in assay [2] turned out to be 5.5 nM; in assay [3], 224 nM.
Taken in the same sequence, the figures for `O=C(Nc1nc(-c2ccccc2)nc2c1nnn2Cc1ccccc1F)c1ccoc1` [N-[9-(ortho-fluorobenzyl)-2-phenyl-9H-8-azapurin-6-yl]-amides (7)] were 2.3 nM and 91 nM.
In turn, `O=C(Nc1nc(-c2ccccc2)nc2c1nnn2Cc1ccccc1F)c1cccc(Cl)c1` [N-[9-(ortho-fluorobenzyl)-2-phenyl-9H-8-azapurin-6-yl]-amides (8)] yielded an inhibition constant Ki in assay [2] of 43 nM.
With `O=C(Nc1nc(-c2ccccc2)nc2c1nnn2Cc1ccccc1F)c1cccc(F)c1` [N-[9-(ortho-fluorobenzyl)-2-phenyl-9H-8-azapurin-6-yl]-amides (9)], the affinity in assay [2] corresponds to a Ki of 5.5 nM.
On the same count and under the same terms, the same measure for `O=C(Nc1nc(-c2ccccc2)nc2c1nnn2Cc1ccccc1F)c1cccc([N+](=O)[O-])c1` [N-[9-(ortho-fluorobenzyl)-2-phenyl-9H-8-azapurin-6-yl]-amides (11)]: 28 nM.
Consider `O=C(Nc1nc(-c2ccccc2)nc2c1nnn2Cc1ccccc1F)c1ccc([N+](=O)[O-])cc1` [N-[9-(ortho-fluorobenzyl)-2-phenyl-9H-8-azapurin-6-yl]-amides (12)], for which, in assay [2], affinity was put at a Ki of 14 nM.
On the same count and under the same terms, the same measure for `O=C(Nc1nc(-c2ccccc2)nc2c1nnn2Cc1ccccc1F)c1ccc(I)cc1` [N-[9-(ortho-fluorobenzyl)-2-phenyl-9H-8-azapurin-6-yl]-amides (13)]: 92 nM; for `Nc1ccc(C(=O)Nc2nc(-c3ccccc3)nc3c2nnn3Cc2ccccc2F)cc1` [N-[9-ortho-fluorobenzyl)-2-phenyl-9H-8-azapurin-6-yl]-amides (15)]: 18 nM.
